From US20030013099A1, “Genes regulated by DNA methylation in colon tumors” (priority 2001, published 2003)

Experiments:
HCT116 cells = assay: microarray differential expression, HCT116 cells treated with 500 nM Aza; type: cell-based, human; details: vs untreated, log base 2, negative = upregulation
Method: HT29 cells were derived from a Grade II adenocarcinoma of the colon obtained from a person. HCT116 cells are a subpopulation of malignant cells isolated from a primary cell culture of a single human colonic carcinoma (Brattain et al. (1981) Cancer Res 41:1751-6). HMEC cells are a primary human epithelial cell line derived from the breast tissue of a normal donor. HT29 and HCT116 colorectal carcinoma cells (American Type Culture Collection, Manassas Va.) were cultured in McCoy's medium supplemented with 10% fetal bovine serum (Invitrogen) at 37° C. and 5% CO2. Treated cells were exposed to 500 nM 5-aza-2-deoxycytidine (Aza; Sigma-Aldrich) 24 hours after passage in complete culture medium. Control cultures were treated in parallel with phosphate buffered saline vehicle. After twenty-four hours, culture medium was replaced with drug-free medium. Control and Aza-treated cells were subcultured at equal densities at 1 and 5 days after the initial treatment, and proliferation was measured at the subsequent time point using a Coulter counter (Beckman Coulter, Fullerton Calif.). Cells were harvested 5 days after the initial treatment.
Cells were harvested and lysed in 1 ml of TRIZOL reagent (5×10^6 cells/ml; Invitrogen). The lysates were vortexed thoroughly and incubated at room temperature for 2-3 minutes and extracted with 0.5 ml chloroform. The extract was mixed, incubated at room temperature for 5 minutes, and centrifuged at 16,000× g for 15 minutes at 4° C. The aqueous layer was collected, and an equal volume of isopropanol was added. Samples were mixed, incubated at room temperature for 10 minutes, and centrifuged at 16,000× g for 20 minutes at 4° C. The supernatant was removed, and the RNA pellet was washed with 1 ml of 70% ethanol, centrifuged at 16,000× g at 4° C., and resuspended in RNAse-free water. The concentration of the RNA was determined by measuring the optical density at 260 nm.
Poly(A) RNA was prepared using an OLIGOTEX mRNA kit (Qiagen) with the following modifications: OLIGOTEX beads were washed in tubes instead of on spin columns, resuspended in elution buffer, and then loaded onto spin columns to recover mRNA. To obtain maximum yield, the mRNA was eluted twice.
Each poly(A) RNA sample was reverse transcribed using MMLV reverse-transcriptase, 0.05 pg/μl oligo-d(T) primer (21mer), 1× first strand buffer, 0.03 units/ul RNAse inhibitor, 500 uM dAT?, 500 uM dGTP, 500 uM dTTP, 40 uM dCTP, and 40 uM either dCTP-Cy3 or dCTP-Cy5 (APB). The reverse transcription reaction was performed in a […] volume containing 200 ng poly(A) RNA using the GEMBRIGHT kit (Incyte Genomics). Specific control poly(A) RNAs (YCFRO6, YCFR45, YCFR67, YCFR85, YCFR43, YCFR22, YCFR23, YCFR25, YCFR44, YCFR26) were synthesized by in vitro transcription from non-coding yeast genomic DNA (W. Lei, unpublished). As quantitative controls, control mRNAs (YCFRO6, YCFR45, YCFR67, and YCFR85) at 0.002 ng, 0.02 ng, 0.2 ng, and 2 ng were diluted into reverse transcription reaction at ratios of 1:100,000, 1:10,000, 1:1000, 1:100 (w/w) to sample mRNA, respectively. To sample differential expression patterns, control mRNAs (YCFR43, YCFR22, YCFR23, YCFR25, YCFR44, YCFR26) were diluted into reverse transcription reaction at ratios of 1:3, 3:1, 1:10, 10:1, 1:25, 25:1 (w/w) to sample mRNA. Reactions were incubated at 37° C. for 2 hours, treated with […] of 0.5M sodium hydroxide, and incubated for 20 minutes at 85° C. to the stop the reaction and degrade the RNA.
cDNAs were purified using two successive CHROMA SPIN 30 gel filtration spin columns (Clontech). Cy3- and Cy5-labeled reaction samples were combined as described below and ethanol precipitated using […] of 100% ethanol. The cDNAs were then dried to completion using a SpeedVAC system (Savant Instruments, Holbrook N.Y.) and resuspended in 14 μl 5× SSC, 0.2% SDS. […]

HT-29 cells [1] = details: Aza treatment; inhibition parallels induction of IFN responsive genes; cited from earlier work
HT-29 cells [2] = details: cultured HT-29 cells, microarray experiments and other methods; cited from earlier work

## Nc1ncn([C@H]2C[C@H](O)[C@@H](CO)O2)c(=O)n1 [Aza, 5-aza-2-deoxycytidine]
HCT116 cells; SEQ ID NO:1 hypothetical protein
  differential expression, Clone ID 2416222, HCT116 t/Aza (5d): −1.72
HCT116 cells; SEQ ID NO:2 Incyte Unique
  differential expression, Clone ID 4103545, HCT116 t/Aza (5d): −1.35
HCT116 cells; SEQ ID NO:3 interferon-inducible protein
  differential expression, Clone ID 322569, HCT116 t/Aza (5d): −1.17
HCT116 cells; SEQ ID NO:5 chromosome 6p21.3, HLA Class I region
  differential expression, Clone ID 5322134, HCT116 t/Aza (5d): −1.72
HCT116 cells; SEQ ID NO:6 unnamed protein product
  differential expression, Clone ID 1698458, HCT116 t/Aza (5d): −1.32
HCT116 cells; SEQ ID NO:7 KIAA1046 protein
  differential expression, Clone ID 1871523, HCT116 t/Aza (5d): −0.85
HCT116 cells; SEQ ID NO:8 putative tumor antigen
  differential expression, Clone ID 6024084, HCT116 t/Aza (5d): −2.66
HCT116 cells; SEQ ID NO:9 Incyte Unique
  differential expression, Clone ID 3810006, HCT116 t/Aza (5d): −0.85
HCT116 cells; SEQ ID NO:10 Incyte Unique
  differential expression, Clone ID 4508879, HCT116 t/Aza (5d): −0.89
HCT116 cells; SEQ ID NO:11 U 6 RNA
  differential expression, Clone ID 4225379, HCT116 t/Aza (5d): −0.89
HCT116 cells; SEQ ID NO:12 cDNA clone ZD16H10
  differential expression, Clone ID 3463713, HCT116 t/Aza (5d): −1.46
HCT116 cells; SEQ ID NO:13, 14 T-cell receptor gamma
  differential expression, Clone ID 2998017, HCT116 t/Aza (5d): −1.23
HCT116 cells; SEQ ID NO:15 pTR5 repetitive sequence
  differential expression, Clone ID 4318273, HCT116 t/Aza (5d): −1.07
HCT116 cells; SEQ ID NO:16 Hep27 protein
  differential expression, Clone ID 1649414, HCT116 t/Aza (5d): −1.00
HCT116 cells; SEQ ID NO:18 cDNA FLJ20222
  differential expression, Clone ID 1684742, HCT116 t/Aza (5d): −0.89
HCT116 cells; SEQ ID NO:19 KIAA0412
  differential expression, Clone ID 2825816, HCT116 t/Aza (5d): −0.89
HCT116 cells; SEQ ID NO:21 Incyte Unique
  differential expression, Clone ID 2440943, HCT116 t/Aza (5d): −1.00
HCT116 cells; SEQ ID NO:22 PDGF-B
  differential expression, Clone ID 1294339, HCT116 t/Aza (5d): −0.89
HCT116 cells; SEQ ID NO:23 cDNA FLJ10570
  differential expression, Clone ID 5104741, HCT116 t/Aza (5d): −1.23
HCT116 cells; SEQ ID NO:24 pTR7 repetitive sequence
  differential expression, Clone ID 1855389, HCT116 t/Aza (5d): −1.51
HCT116 cells; SEQ ID NO:25 chromosome 21 segment HS21C049
  differential expression, Clone ID 5207613, HCT116 t/Aza (5d): −1.67
HCT116 cells; SEQ ID NO:26 hypothetical protein
  differential expression, Clone ID 3207902, HCT116 t/Aza (5d): −0.89
HCT116 cells; SEQ ID NO:27 ZNFpT17
  differential expression, Clone ID 4999769, HCT116 t/Aza (5d): −1.09
HCT116 cells; SEQ ID NO:28 transketolase
  differential expression, Clone ID 408886, HCT116 t/Aza (5d): −2.32
HCT116 cells; SEQ ID NO:30 GAGE-8
  differential expression, Clone ID 4764233, HCT116 t/Aza (5d): −1.79
HCT116 cells; SEQ ID NO:31 GAGE-7B
  differential expression, Clone ID 2511379, HCT116 t/Aza (5d): −1.34
HCT116 cells; SEQ ID NO:33 cDNA clone YU62C03
  differential expression, Clone ID 2471817, HCT116 t/Aza (5d): −0.89
HCT116 cells; SEQ ID NO:34 MAGE-11 antigen
  differential expression, Clone ID 3333736, HCT116 t/Aza (5d): −1.38
HCT116 cells; SEQ ID NO:35 GAGE-8
  differential expression, Clone ID 1304365, HCT116 t/Aza (5d): −1.78
HCT116 cells; SEQ ID NO:37, 38 MAGE-4b antigen
  differential expression, Clone ID 2657056, HCT116 t/Aza (5d): −1.58
HCT116 cells; SEQ ID NO:39 MAGE-9 antigen
  differential expression, Clone ID 2507719, HCT116 t/Aza (5d): −1.70
HCT116 cells; SEQ ID NO:41 MAGE-1
  differential expression, Clone ID 4688, HCT116 t/Aza (5d): −1.14
HCT116 cells; SEQ ID NO:42 HM74
  differential expression, Clone ID 2068708, HCT116 t/Aza (5d): −0.46
HCT116 cells; SEQ ID NO:43 1-8D
  differential expression, Clone ID 23770, HCT116 t/Aza (5d): −0.72
HCT116 cells; SEQ ID NO:45 Incyte Unique
  differential expression, Clone ID 1616783, HCT116 t/Aza (5d): −0.80
HCT116 cells; SEQ ID NO:46 cDNA FLJ20120
  differential expression, Clone ID 820942, HCT116 t/Aza (5d): −0.26
HCT116 cells; SEQ ID NO:47 Incyte Unique
  differential expression, Clone ID 891322, HCT116 t/Aza (5d): −0.58
HCT116 cells; SEQ ID NO:48 U5 A RNA
  differential expression, Clone ID 2755836, HCT116 t/Aza (5d): −0.58
HCT116 cells; SEQ ID NO:49 phospholipid scramblase 1
  differential expression, Clone ID 1227521, HCT116 t/Aza (5d): −0.58
HCT116 cells; SEQ ID NO:50 retinoid inducible gene 1
  differential expression, Clone ID 2200842, HCT116 t/Aza (5d): 0.00
HCT116 cells; SEQ ID NO:51 interferon induced
  differential expression, Clone ID 2238363, HCT116 t/Aza (5d): −0.24
HCT116 cells; SEQ ID NO:53 TRAIL
  differential expression, Clone ID 1495382, HCT116 t/Aza (5d): −0.26
HCT116 cells; SEQ ID NO:55 rhoB
  differential expression, Clone ID 1998269, HCT116 t/Aza (5d): −0.63
HCT116 cells; SEQ ID NO:56 hepatitis C-associated microtubular aggregate
  differential expression, Clone ID 1919287, HCT116 t/Aza (5d): 0.00
HCT116 cells; SEQ ID NO:57 HE4 protein
  differential expression, Clone ID 2637446, HCT116 t/Aza (5d): −0.29
HCT116 cells; SEQ ID NO:58 Similar to keratin 7
  differential expression, Clone ID 1962141, HCT116 t/Aza (5d): −0.92
HCT116 cells; SEQ ID NO:60 Incyte Unique
  differential expression, Clone ID 4933404, HCT116 t/Aza (5d): −2.08
HCT116 cells; SEQ ID NO:61 Keratin 8
  differential expression, Clone ID 2150288, HCT116 t/Aza (5d): −0.92
  differential expression, Clone ID 2697455, HCT116 t/Aza (5d): −1.14
HT-29 cells [1]
  growth of HT-29 cells in culture: inhibits growth
HT-29 cells [2]
  expression of genes related to interferon (IFN) signaling: leads to specific expression of several genes related to interferon (IFN) signaling
